Assay results: ChEMBL document CHEMBL6074703, “BODIPYS Based Fluorescent Markers To Monitor Autophagic Lysosomes and Lipid Droplets in TNBC” (ACS Med Chem Lett, 2024)
Activity calls are given as the source filed them. The calls are words filed in the database; no cut-off is given here.

Tests used:
[1] = Drug uptake in human MDA-MB-231 cells at 20 uM measured after 24 hrs by confocal microscopy based analysis; type: ADME, cell-based; conditions: mda-mb-231, 24 h
[2] = Drug uptake in human MDA-MB-231 cells at 20 uM measured after 6 hrs by confocal microscopy based analysis; type: ADME, cell-based; conditions: mda-mb-231, 6 h
MDA-MB-231 [3] = test: Induction of autophagy in human MDA-MB-231 cells assessed as increase in calcium ion release in cytoplasm by measuring blue fluorescence at 10 uM incubated for 3 hrs followed by dark incubation by Fura-2 dye based confocal microscopy based analysis; type: functional, cell-based
MDA-MB-231 [4] = test: Antiproliferative activity against human MDA-MB-231 cells assessed as reduction in cell viability measured after 48 hrs under dark condition by MTT assay; type: functional, cell-based; conditions: MDA-MB-231, 48 h
MDA-MB-231 [5] = test: Antiproliferative activity against human MDA-MB-231 cells assessed as reduction in cell viability measured after 48 hrs under light condition by MTT assay; type: functional, cell-based; conditions: MDA-MB-231, 48 h
[6] = (§1) Selectivity ratio of IC50 for human MDA-MB-231 cells assessed as reduction in cell viability measured after 48 hrs under dark condition to IC50 human MDA-MB-231 cells assessed as reduction in cell viability measured after 48 hrs under light condition; type: functional
MDA-MB-231 [7] = test: Antiproliferative activity against human MDA-MB-231 cells assessed as reduction in cell viability measured after 48 hrs under dark condition in presence of chloroquine by MTT assay; type: functional, cell-based; conditions: MDA-MB-231, 48 h
MDA-MB-231 [8] = test: Antiproliferative activity against human MDA-MB-231 cells assessed as reduction in cell viability measured after 48 hrs under light condition in presence of chloroquine by MTT assay; type: functional, cell-based; conditions: MDA-MB-231, 48 h
[9] = as §1, with “condition in presence of chloroquine” for “condition”; type: functional
MDA-MB-231 [10] = test: Induction of ROS response in human MDA-MB-231 cells by measuring green fluorescence at 10 uM incubated for 3 hrs under light 24J/cm2 irradiation by H2DCFDA staining based confocal microscopy analysis; type: functional, cell-based
MDA-MB-231 [11] = test: Induction of ROS response in human MDA-MB-231 cells by measuring green fluorescence at 10 uM incubated for 3 hrs dark condition by H2DCFDA staining based confocal microscopy analysis; type: functional, cell-based
[12] = Drug localization in lysosome of human MDA-MB-231 cells assessed as colocalization at 20 uM incubated for 3 hrs by lyso-tracker blue staining based confocal microscopy analysis; type: ADME, subcellular; conditions: mda-mb-231, 3 h
[13] = Drug localization in lysosome of human MDA-MB-231 cells assessed as colocalization at 20 uM incubated for 3 hrs by MDH staining based confocal microscopy analysis; type: ADME, subcellular; conditions: mda-mb-231, 3 h
MDA-MB-231 [14] = test: Induction of autophagy in human MDA-MB-231 cells assessed as increase in green fluorescence at 20 uM under light irradiation by confocal microscopy based analysis; type: functional, cell-based

Drug uptake [1]	Drug uptake [2]	IC50 (MDA-MB-231 [4])	IC50 (MDA-MB-231 [5])	IC50 (MDA-MB-231 [7])	IC50 (MDA-MB-231 [8])	Drug uptake [12]	Drug uptake [13]	Compound	Activity (MDA-MB-231 [3])	Ratio IC50 [6]	Ratio IC50 [9]	Activity (MDA-MB-231 [10])	Activity (MDA-MB-231 [11])	Activity (MDA-MB-231 [14])
Active	Active	13.2 µM	0.95 µM	22.6 µM	1.17 µM	–	–	CCCCn1c2ccc(/C=C/c3ccc(N(c4ccccc4)c4ccccc4)cc3)cc2c2cc(C3=C4C=CC=[N+]4[B-](F)(F)n4cccc43)ccc21	Active	13.84	>19.33	Active	Active	–
–	–	> 50 µM	> 50 µM	–	–	–	–	CCN(CC)CCCC(C)Nc1ccnc2cc(Cl)ccc12 (centres undefined) [CHLOROQUINE]	–	–	–	–	–	–
–	–	11.2 µM	14.2 µM	–	–	–	–	CO[C@H]1C[C@@H]2CC[C@@H](C)[C@@](O)(O2)C(=O)C(=O)N2CCCC[C@H]2C(=O)O[C@H]([C@H](C)C[C@@H]2CC[C@@H](O)[C@H](OC)C2)CC(=O)[C@H](C)/C=C(\C)[C@@H](O)[C@@H](OC)C(=O)[C@H](C)C[C@H](C)/C=C/C=C/C=C/1C [SIROLIMUS]	–	–	–	–	–	–
Active	Active	> 50 µM	17.1 µM	> 50 µM	5.57 µM	Active	Active	CCCCn1c2ccccc2c2cc(/C=C/c3ccc4c(c3)c3cc(C5=C6C=CC=[N+]6[B-](F)(F)n6cccc65)ccc3n4CCCC)ccc21	Active	>2.9	>8.97	Active	Active	Active
